This passage reports Ki results from ChEMBL document CHEMBL1129010, “The preparation and evaluation of (+/-)-trans-1-Diazo-8-methoxy-4a-methyl-1,2,3,4,4a,9,10,10a-octahydro-phenanthren-2-one as an inhibitor of human type-1 steroid 5-reductase” (Bioorg Med Chem Lett, 1996).

Assay [1] concerns the target T1, 3-oxo-5-alpha-steroid 4-dehydrogenase 1 (Homo sapiens, UniProt P18405).
T1 sequence (P18405 whole entry): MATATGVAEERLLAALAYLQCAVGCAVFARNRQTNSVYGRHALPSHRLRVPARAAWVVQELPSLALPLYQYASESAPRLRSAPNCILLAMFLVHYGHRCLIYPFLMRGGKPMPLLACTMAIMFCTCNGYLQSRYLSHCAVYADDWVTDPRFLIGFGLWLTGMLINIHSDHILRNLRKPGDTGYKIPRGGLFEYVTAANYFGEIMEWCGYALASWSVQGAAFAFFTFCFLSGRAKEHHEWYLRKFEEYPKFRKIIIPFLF
Kind of assay: Apparent inhibitory activity against human Steroid 5-alpha-reductase type I expressed in CHO cells. To be noted: read-out: Ki app. The assay is classed as cell-based.

In assay [2] the target is T2, 3-oxo-5-alpha-steroid 4-dehydrogenase 2 (Homo sapiens, UniProt P31213).
T2 sequence (P31213 whole entry): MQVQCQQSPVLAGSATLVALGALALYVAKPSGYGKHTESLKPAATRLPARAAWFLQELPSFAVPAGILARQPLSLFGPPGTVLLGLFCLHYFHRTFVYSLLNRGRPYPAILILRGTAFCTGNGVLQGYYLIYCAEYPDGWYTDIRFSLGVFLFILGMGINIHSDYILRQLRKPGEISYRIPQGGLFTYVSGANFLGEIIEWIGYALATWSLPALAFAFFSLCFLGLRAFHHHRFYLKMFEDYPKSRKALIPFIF
The assay can be described thus: Apparent inhibitory activity against human Steroid 5-alpha-reductase type 2 expressed in CHO cells. The assay is classed as cell-based. To be noted: read-out: Ki app.

Assay [3] addresses T1, 3-oxo-5-alpha-steroid 4-dehydrogenase 1. Kind of assay: Apparent inhibitory activity against human Steroid 5-alpha-reductase type I expressed in CHO cells; Active. The assay is classed as cell-based.
Assay [4] concerns the target T3, 3-oxo-5-alpha-steroid 4-dehydrogenase 1 (Rattus norvegicus, UniProt P24008).
T3 sequence (P24008 whole entry): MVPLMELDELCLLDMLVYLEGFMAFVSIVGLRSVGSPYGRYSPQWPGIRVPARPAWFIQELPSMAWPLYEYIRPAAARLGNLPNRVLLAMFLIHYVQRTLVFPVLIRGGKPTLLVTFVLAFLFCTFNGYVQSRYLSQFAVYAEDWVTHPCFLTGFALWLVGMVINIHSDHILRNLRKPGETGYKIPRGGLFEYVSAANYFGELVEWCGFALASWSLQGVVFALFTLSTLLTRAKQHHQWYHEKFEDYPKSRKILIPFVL
Kind of assay: Apparent inhibitory activity against rat prostatic Steroid 5-alpha-reductase type I.

The target of assay [5] is T1, 3-oxo-5-alpha-steroid 4-dehydrogenase 1. Kind of assay: Selective apparent inhibitory activity against human Steroid 5-alpha-reductase type I expressed in CHO cells; Active. The assay is classed as cell-based.

On to `COc1cccc2c1CC[C@H]1[C-]([N+]#N)C(=O)CC[C@]21C`, for which the Ki in assay [1] is 120 nM; in assay [2], 2000 nM.
With `CN1C(=O)CC[C@]2(C)c3ccc(Cl)cc3CC[C@@H]12`, the Ki entry in assay [3] is given as “Active”.
For `CC(CO)[C@H]1CC[C@H]2[C@@H]3CC[C@H]4C(=[N+]=[N-])C(=O)CC[C@]4(C)[C@H]3CC[C@]12C` (stereo partly specified), the Ki in assay [4] came out at 35 nM.
Consider `C[C@]12CCC(C(=O)O)=CC1=CCc1cc(Cl)ccc12` (racemic), for which, in assay [5], the Ki entry is “Active”.
With `CN1C(=O)CC[C@@H]2c3ccc(Cl)cc3CC[C@H]21` [BEXLOSTERIDE], the Ki result in assay [3] is given as “Active”.
